In PubChem BioAssay (NCI):
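Cells were grown in 96-well plates and exposed to each compound for 48 hours at five concentrations; endpoints were interpolated linearly between bracketing concentrations, or set to the highest concentration if not reached. TGI is the concentration that stops growth completely.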 Where a SMILES comes first, the peptide text is derived from it. [ ]: non-standard residue; d: D form. The star is where a group is joined. hSer = N[CH](CCO)C(=O)O; Boc = CC(C)(C)OC(=O)*

What was measured:
Assay in all cases: NCI-60 cell line screen, 48 h
SNB-19 CNS = test system: SNB-19 CNS
MDA-MB-231 breast = test system: MDA-MB-231 breast
SK-MEL-5 melanoma = test system: SK-MEL-5 melanoma
786-0 renal = test system: 786-0 renal
HCT-116 colon = test system: HCT-116 colon
OVCAR-3 ovarian = test system: OVCAR-3 ovarian
KM12 colon = test system: KM12 colon
CCRF-CEM leukemia = test system: CCRF-CEM leukemia
PC-3 prostate = test system: PC-3 prostate
U251 CNS = test system: U251 CNS

Structure (SMILES)	TGI (SNB-19 CNS)	TGI (MDA-MB-231 breast)	TGI (SK-MEL-5 melanoma)	TGI (786-0 renal)	TGI (HCT-116 colon)	TGI (OVCAR-3 ovarian)	TGI (KM12 colon)	TGI (CCRF-CEM leukemia)	TGI (PC-3 prostate)	TGI (U251 CNS)
Oc1ccc(-c2cc(-c3c(O)cc(O)cc3O)on2)cc1	> 100 µM	> 100 µM	> 100 µM	> 100 µM	> 100 µM	> 100 µM	> 100 µM	> 100 µM	> 100 µM	> 100 µM
COCCC(NC(=O)C(CC(C)C)NC(=O)OC(C)(C)C)C(N)=O (stereo not drawn) (Boc-Leu-[hSer](Me)-NH2; configuration not given here)	> 100 µM	> 100 µM	> 100 µM	> 100 µM	> 100 µM	> 100 µM	> 100 µM	> 100 µM	> 100 µM	> 100 µM
CCOC(=O)CC(C)C(C#N)(OP1(=O)OC(c2ccccc2)C(C)N1C)c1ccccc1 (stereo unspecified)	> 100 µM	> 100 µM	> 100 µM	> 100 µM	> 100 µM	> 100 µM	> 100 µM	> 100 µM	> 100 µM	> 100 µM
COc1ccc(C2CC(c3cc4c(C)c(C(=O)c5ccccc5)oc4cc3O)=Nc3ccccc3S2)cc1OC (stereo unspecified)	> 85.8 µM	> 100 µM	> 100 µM	> 100 µM	> 100 µM	> 100 µM	> 34.8 µM	> 100 µM	> 100 µM	> 100 µM
COC1/C=C\C=C(/C)C(=O)NC2=CC(=O)C(NCCCl)=C(CC(C)CC(OC)C(O)C(C)/C=C(/C)C1OC(N)=O)C2=O (stereo unspecified)	13.6 µM	20.4 µM	3.11 µM	9.05 µM	2.88 µM	8.4 µM	2.01 µM	21.9 µM	8.84 µM	4.14 µM
O=C(CCSC(CC(=O)c1ccc(Cl)cc1)c1ccc(Cl)cc1)Nc1ccc(Cl)cc1 (stereo unspecified)	26.6 µM	33.4 µM	29.4 µM	27.6 µM	18.5 µM	27.1 µM	12.4 µM	5.55 µM	27.1 µM	21.1 µM
Cc1ncc([N+](=O)[O-])n1CCN(C)CCCCn1ccnc1[N+](=O)[O-]	> 100 µM	> 100 µM	> 100 µM	> 100 µM	> 100 µM	> 100 µM	> 100 µM	> 100 µM	> 100 µM	> 100 µM
C1=C2SSC3=CC=C(SSc4ccc(s4)SSC4=CC=C(SSC(=C1)S2)S4)S3	> 100 µM	> 100 µM	> 100 µM	> 100 µM	> 100 µM	> 100 µM	> 100 µM	> 100 µM	> 100 µM	> 100 µM
CC12CC3c4ccccc4CN1C3(c1ccccc1)OC2=O (stereo unspecified)	> 100 µM	> 100 µM	> 100 µM	> 100 µM	> 100 µM		> 100 µM	> 100 µM	> 100 µM	> 100 µM
N/C(CC/C(N)=N\O)=N\O	> 100 µM	> 100 µM	> 100 µM	> 100 µM	> 100 µM	> 100 µM	> 100 µM		> 100 µM	> 100 µM
O=S(=O)(O)c1cc(Cl)c(O)c2ncc(Cl)cc12	> 100 µM	> 100 µM	> 100 µM	> 100 µM	> 100 µM	> 100 µM	> 100 µM	> 100 µM	> 100 µM	> 100 µM
CSc1n[nH]c(N)c1C(=O)Nc1ccc(Cl)cc1	> 100 µM	> 100 µM	> 100 µM	> 100 µM	56 µM	> 100 µM	> 100 µM	> 100 µM	> 100 µM	> 100 µM
CCOC(=O)NNC(=O)NCCNC(=O)NNC(=O)OCC	> 100 µM	> 100 µM	> 100 µM	> 100 µM	> 100 µM	> 100 µM	> 100 µM	> 100 µM	> 100 µM	> 100 µM
O=S(=O)(O)c1ccc(NN(c2c(O)ccc3ccccc23)S(=O)(=O)O)cc1	> 100 µM	> 100 µM	> 100 µM	> 100 µM	> 100 µM	> 100 µM	> 100 µM	> 100 µM	> 100 µM	> 100 µM
Fc1cccc(F)c1C1SCC2=Nc3ccccc3CN21 (stereo unspecified)	> 100 µM	> 100 µM	> 100 µM	> 100 µM	> 100 µM	47.5 µM	> 100 µM	> 100 µM	> 100 µM	> 100 µM
N#CC(c1ccc(O)cc1)N1CCN(C(C#N)c2ccc(O)cc2)CC1 (stereo unspecified)	75.7 µM	55.8 µM	> 100 µM	> 100 µM	> 100 µM	> 100 µM	> 100 µM	> 100 µM	> 100 µM	51.9 µM
c1ccc(COc2ccc(C[P+](c3ccccc3)(c3ccccc3)c3ccccc3)cc2)cc1	14.8 µM	4.86 µM	0.284 µM	3.57 µM	1.68 µM	11 µM	1.66 µM	7.28 µM	3.07 µM	11.8 µM
Cc1cc(-c2ccc(C(=O)C(Cl)(Cl)Cl)[nH]2)on1	> 100 µM	60.1 µM	> 100 µM	> 100 µM	> 100 µM	90.1 µM	24.6 µM	> 100 µM	> 100 µM	28.7 µM
O=C(Cc1ccc(Cl)c(Cl)c1)NCCCN1CCN(CCCN2CCCCC2)CC1	63.9 µM	28.8 µM	22.1 µM	31.7 µM	32.9 µM	80.7 µM	31.2 µM	34 µM	40.7 µM	32.5 µM
CN1CC(c2ccccc2)=Cc2c1ccc(N)c2N=N	> 100 µM	> 100 µM	> 100 µM	> 100 µM	> 100 µM	> 100 µM	> 100 µM	> 100 µM	> 100 µM	> 100 µM
Oc1c(OCc2nnc(CCCCCCCCc3nnc(COc4ccc5ccccc5c4O)n3Nc3ccccc3)n2Nc2ccccc2)ccc2ccccc12	29.8 µM	23.4 µM	3.27 µM	27.4 µM	24.8 µM	30.6 µM	19 µM		19.2 µM	25.5 µM
CSc1nc2c(c(N(C)C)n1)C=Nn1c(nc3ccccc31)S2	> 100 µM	> 100 µM	> 100 µM	> 100 µM	> 100 µM	> 100 µM	> 100 µM		> 100 µM	> 100 µM
